Data set [1] is described as follows: Dienol (4) Log P determination by reverse-phase HPLC. Type of data set: physicochemical. Conditions: for chromatographic logP: from HPLC log kw via calibration curve of reference samples' published Log Po,w, read-out: Calculated Log P Values; for Calculated kw: retention factor at 100% buffer, extrapolated from HPLC retention factors at MeOH:buffer 45:55→60:40, 25° C. The procedure: Log P, partitioning coefficient of respective compounds between a hydrophilic (aqueous) and lipophilic (oil) phase, studies were conducted to investigate the relative hydrophobicity of Dienols (4). Using HPLC equipped with an XTerra reverse-phase C18 (RP18) 3.5 μm 4.6×150 mm column (Waters, Milford, Mass.) and Waters 2695 Separations Module, sample retention times were analyzed via a Waters 2487 Dual λ Absorbance Detector monitoring 254 and 270 nm. Mobile phases of HPLC grade methanol (MeOH) and 50 mM KH2PO4 with 1% formic acid in HPLC grade water were utilized at varying ratios (45:55→60:40) and run at 1 mL/min flow rate and 25° C. (Ayouni, et al., Chromatographia 2005, 62, (5-6), 251-255). All samples were first dissolved in DMSO and subsequently diluted with phosphate-buffer saline (PBS) to acquire 1% DMSO solutions and filtered through 0.22 μm PVDF syringe filters prior to autoinjection (20 μL).
Dienol retention factor (k) for each methanol concentration was calculated according to equation one, where tR and t0 are the retention times of the Dienols and dead time, as determined by the injection of sodium nitrate (Ayouni, et al., Chromatographia 2005, 62, (5-6), 251-255), respectfully. From the obtained retention factors the kw, retention factor at 100% buffer, was extrapolated. Hydroxybenzyl alcohol, benzyl alcohol, 2-phenylethanol, methylparaben, anisole, toluene, and thymol were used as reference samples and their retention times acquired. Using reference samples' published Log Po,w values (OECD Nuclear Energy Agency.; Organisation for Economic Co-operation and Development. In OECD guidelines for the testing of chemicals 117, Organisation for Economic Co-Operation and Development: Paris, 2004), a calibration curve was generated in which Log Po,w values were plotted on the y-axis whereas log kw values, obtained from the same method as above, were plotted on the x-axis (Ouimet, et al., Biomacromolecules 2015, 16, 2911-2919). Dienol Log P values were then calculated from the curve using equation 2. kw=(tR−t0)/t0 Equation 1 Log P=slope×log kw+y−intercept Equation 2
Thus, Dienol Log P values were extrapolated from an HPLC method to determine lipophilicity (OECD Nuclear Energy Agency.; Organisation for Economic Co-operation and Development. In OECD guidelines for the testing of chemicals 117, Organisation for Economic Co-Operation and Development: Paris, 2004). Retention factors (k) were calculated according to equation 1 for each concentration of MeOH and kw values extrapolated based off the retention times (Table 1).

Another data set concerns 3T3 mouse fibroblasts. The data set is described as follows: Cytotoxicity / cytocompatibility (MTS cell viability). The class given is cell-based. Conditions: 1000 μM, after 24 h. The procedure:
In vitro cytocompatibility studies were performed by culturing 3T3 mouse fibroblasts in cell media (Dulbecco's Modified Eagle Medium supplemented with 10% Fetal Bovine Serum, 1% Penicillin Streptomycin, and 1% L-glutamate) containing the KA poly(carbonate-esters). Polymers (5a-5c, 6a-6e) and Dienols (4a-4e) were first sterilized under UV at λ=254 nm for 900 s (Spectronics Corporation, Westbury, N.Y.) and subsequently dissolved in DMSO to acquire a stock solution. The stock solution was then serial diluted with cell media. Cells were seeded in a 96-well plate at 2,000 cells/well in […]. Following incubation for 1 h, polymer-containing media in 1% DMSO, at concentrations capable of inhibiting tyrosinase (0.1 mg/mL, 0.01 mg/mL and 0.001 mg/mL) were added to allocated wells in a 96-well plate and incubated at 37° C. DMSO (1%) in cell media was used as a negative control.
Cell viability was determined using CellTiter 96® Aqueous One Solution Cell Proliferation Assay. After 24 h, 48 h, and 72 h incubation with polymers, 20 μL of (3-(4,5-dimethylthiazol-2-yl)-5-(3-carboxymethoxyphenyl)-2-(4-sulfophenyl)-2H-tetrazolium) (MTS) reagent was added to each well and further incubated for 4 h at 37° C. The absorbance was then recorded with a microplate reader (Coulter, Boulevard Brea, Calif.) at 490 nm. […]

Structures are written as SMILES.

As to `O=C(CCCCCCCC(=O)OCc1cc(=O)c(O)co1)OCc1cc(=O)c(O)co1` [Compound 4c, KA (Azelaic) Dienol], in data set [1], the chromatographic logP is 2.59 and the Calculated kw is 16.0.

Turning to `O=C(COCCOCCOCC(=O)OCc1cc(=O)c(O)co1)OCc1cc(=O)c(O)co1` [Compound 4e, KA (Tetraglycolic) Dienol], in data set [1], the chromatographic logP is 0.235 and the Calculated kw is listed as 0.688.

Turning to `O=C(CCCCCCCCC(=O)OCc1cc(=O)c(O)co1)OCc1cc(=O)c(O)co1` [Compound 4d, KA (sebacic) Dienol], in data set [1], the chromatographic logP is 3.1 and the Calculated kw is 31.6.

With `O=C(CCC(=O)OCc1cc(=O)c(O)co1)OCc1cc(=O)c(O)co1` [Compound 4a, KA (succinic) Dienol], in data set [1], the chromatographic logP was 0.353 and the Calculated kw is 0.806.

As for `O=c1cc(CO)occ1O` [Kojic Acid, 5-Hydroxy-2-(hydroxymethyl)-4-pyrone], the cytocompatibility result in the data set on 3T3 mouse fibroblasts is “slightly cytotoxic”.

In the case of `O=C(CCCCC(=O)OCc1cc(=O)c(O)co1)OCc1cc(=O)c(O)co1` [Compound 4b, KA (adipic) Dienol], in data set [1], the chromatographic logP was 1.17 and the Calculated kw is 2.40.

The values are drawn from patent publication US10543162B2 (Rutgers, The State University of New Jersey, priority 2015, dated 2020).
